From patent publication US9150546B2, “Triazine derivative and pharmaceutical composition comprising the same” (SHIONOGI & CO., LTD., priority 2009, dated 2015)

target: human P2X3 receptor (Homo sapiens (Human), UniProt P56373); test: P2X3 receptor inhibition, ATP-evoked Fluo-3 fluorescence (FDSS 3000); assay type: cell-based; settings: C6BU-1 cell transfected with human P2X3 receptor gene
Sequence (P56373 whole entry): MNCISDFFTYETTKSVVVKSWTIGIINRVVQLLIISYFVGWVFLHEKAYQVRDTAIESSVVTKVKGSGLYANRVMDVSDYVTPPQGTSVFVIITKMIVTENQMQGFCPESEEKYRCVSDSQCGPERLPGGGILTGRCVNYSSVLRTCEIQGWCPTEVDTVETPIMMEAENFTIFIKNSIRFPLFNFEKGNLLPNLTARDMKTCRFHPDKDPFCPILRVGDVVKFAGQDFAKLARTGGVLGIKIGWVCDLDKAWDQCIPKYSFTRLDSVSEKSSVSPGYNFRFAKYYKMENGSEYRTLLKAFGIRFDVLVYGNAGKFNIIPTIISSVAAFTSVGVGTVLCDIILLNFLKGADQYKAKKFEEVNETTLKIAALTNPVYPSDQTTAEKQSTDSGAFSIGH

In order of falling IC50:
1. CC(C)n1c(=O)nc(Nc2cccc(OC(F)(F)F)c2)n(Cc2ccc(F)cc2)c1=O [I-181]  985 nM
2. CC(Nc1nc(=O)n(C(C)C)c(=O)n1Cc1ccc(F)cc1)c1ccc(Cl)cc1 (stereo not drawn) [I-223]  909 nM
3. CCC[S+]([O-])c1ccc(Nc2nc(=O)n(CCO)c(=O)n2Cc2ccc(Cl)cc2)cc1 (stereo not drawn) [I-385]  908 nM
4. CC(C)CNC(=O)c1ccc(Nc2nc(=O)n(C(C)C)c(=O)n2Cc2ccc(Cl)cc2)cc1 [I-256]  867 nM
5. CC(C)n1c(=O)nc(Nc2ccc(Oc3ccccc3)cc2)n(Cc2ccc(Cl)cn2)c1=O [I-164]  860 nM
6. CC(C)n1c(=O)nc(Nc2cccc(F)c2)n(Cc2ccc(F)cc2)c1=O [I-182]  714 nM
7. CCn1c(=O)nc(Nc2ccc(Oc3ccccc3)cc2)n(Cc2ccc(F)cc2)c1=O [I-141]  685 nM
8. CC(C)n1c(=O)nc(Nc2ccc(C(=O)NC3CC3)cc2)n(Cc2ccc(Cl)cc2)c1=O [I-257]  682 nM
9. COC(=O)C(C)(C)Cn1c(=O)[nH]/c(=N\c2ccc3c(ccn3C)c2)n(Cc2ccc(Cl)cc2)c1=O [I-427]  678 nM
10. CC(C)Oc1ccc(Nc2nc(=O)n(CCO)c(=O)[nH]2)cc1F [I-325]  665 nM
11. COC(=O)c1ccc(Nc2nc(=O)n(C(C)C)c(=O)n2Cc2ccc(F)cc2)cc1Cl [I-238]  658 nM
12. CCCn1ccc2cc(/N=c3\[nH]c(=O)n(CC(C)(C)C(=O)O)c(=O)n3Cc3ccc(Cl)cc3)ccc21 [I-509]  652 nM
13. CCCCn1c(=O)nc(Nc2cccc(C(F)(F)F)c2)n(Cc2ccc(C)cc2)c1=O [I-029]  595 nM
14. CC(C)Oc1ccc(/N=c2\[nH]c(=O)n(C(C)C(=O)O)c(=O)n2Cc2ccc(Cl)cc2)cc1F (stereo not drawn) [I-475]  571 nM
15. O=c1nc(Nc2cccc(-c3ccon3)c2)n(Cc2ccc(Cl)cc2)c(=O)n1CCO [I-314]  555 nM
16. Cc1ccc(Cn2c(Nc3cccc(C(F)(F)F)c3)nc(=O)n(C(C)(C)C)c2=O)cc1 [I-097]  505 nM
17. CCN(CC)c1nc(=O)n(Cc2ccc(Cl)cc2)/c(=N/c2ccc(OC(C)C)c(Cl)c2)[nH]1 [II-013]  430 nM
18. Cc1ccc(Cn2c(Nc3cccc(Cl)c3)nc(=O)n(C(C)C)c2=O)cc1 [I-117]  387 nM
19. CC(C)n1c(=O)nc(Nc2cccc(C(F)(F)F)c2)n(Cc2ccc(Cl)cn2)c1=O [I-162]  379 nM
20. CC(C)Oc1ccc(Nc2nc(=O)n(C(C)C)c(=O)n2Cc2ccc(F)cc2)cc1 [I-133]  339 nM
21. CC(C)Oc1ccc(Nc2nc(=O)n(CCO)c(=O)n2Cc2ccc(F)cc2F)cc1F [I-340]  336 nM
22. CCCSc1ccc(Nc2nc(=O)n(CCO)c(=O)n2Cc2ccc(Cl)cc2)cc1 [I-379]  330 nM
23. CCCn1ccc2cc(/N=c3\[nH]c(=O)n(CC(C)(C)C(=O)OC)c(=O)n3Cc3ccc(Cl)cc3)ccc21 [I-507]  301 nM
24. CCOc1ccc(/N=c2\[nH]c(=O)n(C[C@@H](C)C(=O)O)c(=O)n2Cc2ccc(Cl)cc2)cc1 [I-484]  290 nM
25. COC(=O)C(C)(C)Cn1c(=O)[nH]/c(=N\c2ccc3c(ccn3CC(C)C)c2)n(Cc2ccc(Cl)cc2)c1=O [I-506]  279 nM
26. COc1cc(Cl)ccc1Cn1c(Nc2ccc(OC(C)C)c(F)c2)nc(=O)n(C(C)C)c1=O [I-270]  271 nM
27. COc1nc(=O)n(Cc2ccc(Cl)cc2)/c(=N/c2ccc(OC(C)C)c(Cl)c2)[nH]1 [I-433]  199 nM
28. CCOc1ccc(/N=c2\[nH]c(=O)n(C[C@@H](C)C(=O)O)c(=O)n2Cc2ccc(Cl)cc2)cc1C [I-485]  198 nM
29. CC(C)(Cn1c(=O)[nH]/c(=N\c2ccc(OC(F)F)cc2)n(Cc2ccc(Cl)cc2)c1=O)C(=O)O [I-543]  172 nM
30. CC(C)Oc1ccc(Nc2nc(=O)n(C(C)C)c(=O)n2Cc2ccc(Cl)cc2)cc1C#N [I-245]  168 nM
31. O=c1nc(Nc2ccc(OC(F)F)cc2)n(Cc2ccc(Cl)cc2)c(=O)n1CCCO [I-360]  148 nM
32. CC(C)COc1ccc(Nc2nc(=O)n(CCO)c(=O)n2Cc2ccc(Cl)cc2)cc1F [I-323]  148 nM
33. CC(C)Oc1ccc(/N=c2\[nH]c(=O)n(CC(C)(C)C(=O)O)c(=O)n2CC2CCCC2)cc1Cl [I-554]  139 nM
34. CC(C)Oc1ccc(Nc2nc(=O)n(CCN3C(=O)CNC3=O)c(=O)n2Cc2ccc(Cl)cc2)cc1F [I-391]  133 nM
35. CC(C)Oc1ccc(Nc2nc(=O)n(C(C)C)c(=O)n2Cc2ccc(F)cc2)cc1Cl [I-203]  110 nM
36. CCOc1ccc(Nc2nc(=O)n(CCO)c(=O)n2Cc2ccc(Cl)cc2)cc1F [I-312]  104 nM
37. Cc1cc(/N=c2\[nH]c(=O)n(C[C@H](C)C(=O)O)c(=O)n2CC2CCCCC2)ccc1OC(C)C [I-559]  97 nM
38. CC(C)Oc1ccc(Nc2nc(OCCO)nc(=O)n2Cc2ccc(Cl)cc2)cc1F [II-002]  79 nM
39. COC(=O)C[C@H](C)n1c(=O)[nH]/c(=N\c2ccc(OC(C)C)c(F)c2)n(Cc2ccc(Cl)cc2)c1=O [I-523]  72 nM
40. CC(C)Oc1ccc(Nc2nc(=O)n(CC(C)(C)CN)c(=O)n2Cc2ccc(Cl)cc2)cc1F [I-331]  66 nM
41. CCNC(=O)NCCn1c(=O)nc(Nc2ccc(OC(C)C)c(F)c2)n(Cc2ccc(Cl)cc2)c1=O [I-389]  64 nM
42. Cc1ccc(Cn2c(=O)n(CCC(=O)O)c(=O)[nH]/c2=N\c2ccc(OC(C)C)c(F)c2)cc1 [I-411]  61 nM
43. CC(C)(Cn1c(=O)[nH]/c(=N\c2ccc(Cl)c(Cl)c2)n(Cc2ccc(Cl)cc2)c1=O)C(=O)O [I-477]  56 nM
44. Cc1cc(/N=c2\[nH]c(=O)n([C@@H](C)CC(=O)O)c(=O)n2Cc2ccc(Cl)cc2)ccc1OC(C)C [I-528]  53 nM
45. Cc1cc(/N=c2\[nH]c(=O)n(CCCC(=O)O)c(=O)n2Cc2ccc(Cl)cc2)ccc1OC(C)C [I-503]  50 nM
46. CC(C)Oc1ccc(/N=c2\[nH]c(=O)n(CC3(C(=O)O)CC3)c(=O)n2Cc2ccc(Cl)cc2)cc1F [I-424]  49 nM
47. O=c1nc(Nc2cccc(C(F)(F)F)c2)n(Cc2ccc(Cl)cc2)c(=O)n1CCCO [I-357]  47 nM
48. CC(C)Oc1ccc(Nc2nc(=O)n(CC(N)=O)c(=O)n2Cc2ccc(Cl)cc2)cc1F [I-295]  46 nM
49. Cc1cc(/N=c2\[nH]c(=O)n(C[C@@H](C)C(=O)O)c(=O)n2Cc2ccc(Cl)cc2)ccc1OC(C)C [I-486]  42 nM
50. CC(C)Oc1ccc(/N=c2\[nH]c(=O)n(Cc3ccccc3C(=O)O)c(=O)n2Cc2ccc(Cl)cc2)cc1F [I-459]  39 nM
51. CC(C)Oc1ccc(Nc2nc(=O)n(CCNC(=O)NCC(=O)O)c(=O)n2Cc2ccc(Cl)cc2)cc1F [I-392]  38 nM
52. COC(=O)C(C)(C)Cn1c(=O)[nH]/c(=N\c2cccc(Cl)c2)n(Cc2ccc(Cl)cc2)c1=O [I-466]  37 nM
53. COC(=O)C(C)(C)Cn1c(=O)[nH]/c(=N\c2cccc(OC(F)(F)F)c2)n(Cc2ccc(Cl)cc2)c1=O [I-467]  37 nM
54. CC(C)Oc1ccc(Nc2nc(=O)n(CCNC(=O)N(C)C)c(=O)n2Cc2ccc(Cl)cc2)cc1F [I-388]  36 nM
55. COC(=O)c1cccc(Cn2c(=O)[nH]/c(=N\c3ccc(OC(C)C)c(F)c3)n(Cc3ccc(Cl)cc3)c2=O)c1 [I-450]  36 nM
56. CC(C)(Cn1c(=O)[nH]/c(=N\c2cccc(C(F)(F)F)c2)n(Cc2ccc(Cl)cc2)c1=O)C(=O)O [I-476]  35 nM
57. COC(=O)C(C)(C)Cn1c(=O)[nH]/c(=N\c2ccc3nc(C)oc3c2)n(Cc2ccc(Cl)cc2)c1=O [I-494]  34 nM
58. COC(=O)C(C)(C)Cn1c(=O)[nH]/c(=N\c2ccc(OC(C)C)c(Cl)c2)n(CC2CCCC2)c1=O [I-550]  33 nM
59. CC(C)Oc1ccc(/N=c2\[nH]c(=O)n(CCC(C)(C)C(=O)OCc3ccccc3)c(=O)n2Cc2ccc(Cl)cc2)cc1F [I-406]  30 nM
60. Cc1cc(/N=c2\[nH]c(=O)n(CC(C)(C)C(=O)O)c(=O)n2Cc2ccc(Cl)cc2)ccc1OC(C)C [I-432]  26 nM
61. COC(=O)C(C)(C)Cn1c(=O)[nH]/c(=N\c2cccc(C(F)(F)F)c2)n(Cc2ccc(Cl)cc2)c1=O [I-471]  24 nM
62. COc1ccc(Cn2c(=O)nc(Nc3ccc(OC(C)C)c(F)c3)n(Cc3ccc(Cl)cc3)c2=O)cc1 [I-343]  21 nM
63. COC(=O)CNC(=O)Cn1c(=O)[nH]/c(=N\c2ccc(OC(C)C)c(F)c2)n(Cc2ccc(Cl)cc2)c1=O [I-397]  19 nM
64. CC(C)Oc1ccc(Nc2nc(=O)n(CC(F)(F)C(=O)O)c(=O)n2Cc2ccc(Cl)cc2)cc1F [I-283]  19 nM
65. CC(C)Oc1ccc(/N=c2\[nH]c(=O)n(CC3(C(=O)O)CC3)c(=O)n2Cc2ccc(Cl)cc2)cc1Cl [I-425]  16 nM
66. C=CCn1c(=O)nc(Nc2ccc(OC(C)C)c(F)c2)n(Cc2ccc(Cl)cc2)c1=O [I-346]  16 nM
67. COC(=O)C(C)n1c(=O)[nH]/c(=N\c2ccc(OC(C)C)c(F)c2)n(Cc2ccc(Cl)cc2)c1=O (stereo not drawn) [I-474]  14 nM
68. COC(=O)CCn1c(=O)[nH]/c(=N\c2ccc(OC(C)C)c(F)c2)n(Cc2ccc(C)cc2)c1=O [I-409]  12 nM
69. COC(=O)C(C)(C)Cn1c(=O)[nH]/c(=N\c2ccc(OC(C)C)c(F)c2)n(Cc2ccc(C)cc2)c1=O [I-404]  12 nM
70. CC(C)Oc1ccc(Nc2nc(=O)n(CC(CO)CO)c(=O)n2Cc2ccc(Cl)cc2)cc1F [I-276]  12 nM
71. COC(=O)C(C)(C)Cn1c(=O)[nH]/c(=N\c2ccc3oc(C)cc3c2)n(Cc2ccc(Cl)cc2)c1=O [I-489]  10 nM
72. Cc1ccc(Cn2c(=O)n(CC(C)(C)C(=O)O)c(=O)[nH]/c2=N\c2ccc(OC(C)C)c(Cl)c2)cc1 [I-408]  10 nM
73. CC(C)Oc1ccc(Nc2nc(=O)n(CC(C)(C)CO)c(=O)n2Cc2ccc(Cl)cc2)cc1F [I-332]  8 nM
74. CCOc1ccc(/N=c2\[nH]c(=O)n(C[C@H](C)C(=O)O)c(=O)n2Cc2ccc(Cl)cc2)cc1Cl [I-539]  7 nM
75. CC(C)Oc1ccc(Nc2nc(=O)n(CCCO)c(=O)n2Cc2ccc(Cl)cc2)cc1Cl [I-362]  7 nM
76. CC(C)Oc1ccc(/N=c2\[nH]c(=O)n(CC(=O)NC(CO)CO)c(=O)n2Cc2ccc(Cl)cc2)cc1F [I-398]  7 nM
77. CC(C)Oc1ccc(/N=c2\[nH]c(=O)n(CC(=O)NCC#N)c(=O)n2Cc2ccc(Cl)cc2)cc1Cl [I-435]  6 nM
78. CCOC(=O)CCCn1c(=O)[nH]/c(=N\c2ccc(OC(C)C)c(C)c2)n(Cc2ccc(C)cc2)c1=O [I-521]  4 nM
